One compound from US20250375417A1, “OREXIN RECEPTOR 2 (OX2R) AGONIST FOR USE IN NARCOLEPSY TYPE 1 (NT1)” (TAKEDA PHARMACEUTICAL COMPANY LIMITED, priority 2024, published 2025) can be followed below.

Common to all, as to type: in vivo, human
One data set has as its system participants with NT1. In words: Weekly cataplexy rate (WCR), Phase 2 NT1 trial. The protocol: In some aspects of the methods described herein, the subject experiences a lower weekly cataplexy rate (WCR) after a treatment period compared to an untreated subject.
Cataplexy events are recorded for 14 consecutive days, starting after completion of washout of any anti-cataplexy medications and completed before Day-2 are considered for WCR study entry criterion. The total number of events/week (WCR) is calculated based on the number of cataplexy episodes averaged over 2 weeks, with at least 11 out of 14 days required to calculate the WCR.
Randomization was stratified by region. Starting on the morning of Day 1, the study drug was administered at approximately the same time each day for 8 or 12 weeks. If the participant wished to enroll in the long-term extension (LTE) study described in Example 3 but the LTE study had not started at the participant's site when the participant completed the Week 8 visit of the current study, the participant was allowed to continue in the current study for an additional 4 weeks.
The following doses were studied: • Compound A Dose Regimen 1:0.5 mg twice daily approximately 3 hours apart. • Compound A Dose Regimen 2:2 mg twice daily approximately 3 hours apart. • Compound A Dose Regimen 3:2 mg followed by 5 mg approximately 3 hours apart. • Compound A Dose Regimen 4:7 mg once daily (QD). • Other products required for the study: Matching placebo. […]

For data set [1], the system named is participants with NT2. Kind of data set: Safety (TEAEs), long-term extension (LTE) study, NT2 participants. The protocol: (§1) Eligible participants were age 18-70 years, with Epworth Sleepiness Scale (ESS) score>12 and no other current EDS-related medical conditions. Participants were randomized 1:1:1 to daily oral Compound A 2 mg twice 3 hours apart, 2 mg then 5 mg 3 hours later, or placebo. Study endpoints included change from baseline to Week 8 in mean Sleep Onset Latency on the Maintenance of Wakefulness Test (mean SOL-MWT; primary endpoint), ESS total score, and incidence of treatment-emergent adverse events (TEAEs). Participants who completed the placebo-controlled study could enroll in a ˜2-year Long Term Extension (LTE) study. LTE TEAE data up to Jan. 25, 2024 are reported.
This was a phase 2/3 multicenter, dose-blind, long-term extension (LTE) study of Compound A. Participants from controlled studies conducted with Compound A, who had up to a 3-month dosing gap between their parent study and the screening period for this study, were eligible to participate in this study.
Day 1 dosing for all participants occurred in-clinic with PK and safety assessments. Participants who were undergoing nocturnal polysomnography (nPSG) and an MWT during the final assessment of their Compound A parent study had the option of staying overnight in the clinic on Day −1 so they were already in the clinic for Day 1 the following day. […]

In data set [2] the test system is participants with NT2. In words: Safety (TEAEs), Phase 2 NT2 trial. The method, then: The principal mitigation strategy for risks related to BP increase, HR increase, insomnia, and bladder events included appropriate selection of the study population; use of the inpatient clinical research unit setting and home health visits, which permitted close monitoring and rapid institution of appropriate care as needed; appropriate specified monitoring procedures; and use of experienced staff trained in study procedures. To mitigate cardiovascular risks, BP and HR were measured frequently in this study; cardiovascular effects were evaluated by using BP and HR assessments and electrocardiographic (ECG) assessments. Stopping rules for individual participants and the overall study were established. In addition, because liver function test (LFT) elevation cases have been observed in another OX2R agonist with structural similarity, LFTs (ALT, AST, GGT, and total bilirubin) were closely monitored.
Liver function test (LFTs) (alanine aminotransferase [ALT], aspartate aminotransferase [AST], γ-glutamyl transferase [GGT], and total bilirubin) were closely monitored in this study. Stopping criteria for individual participants and the overall study, based on abnormal LFTs were established.
as §1

Regarding `CCS(=O)(=O)N[C@@H]1[C@H](Cc2cccc(-c3cc(F)cc(F)c3)c2F)N(C(=O)C(C)(C)O)CC1(F)F` [Compound A, N-{(2S,3R)-4,4-difluoro-1-(2-hydroxy-2-methylpropanoyl)-2-[(2,3′,5′-trifluoro[1,1′-biphenyl]-3-yl)methyl]pyrrolidin-3-yl}ethanesulfonamide], in the data set with participants with NT1 (2 mg/2 mg and 2 mg/5 mg dose groups, adjusted for multiple comparisons), the “Change from baseline to Week 8 in WCR versus placebo” value is given as “statistically significant changes”. Further, the “Median WCR versus placebo” value in the data set on participants with NT1 (twice daily dosing (FIG. 5)) is “significantly reduced cataplexy events”. Further, the “Participants discontinued due to TEAEs” value in the data set with participants with NT2 [1] is on record as 3; in the data set with participants with NT2 [2] (parent study (arm not stated)) it was “Two”. In addition, the “Participants who experienced TEAEs” value in the data set on participants with NT2 [1] (treated participants (41/57), data up to Jan. 25, 2024) came out at 71.9%. Moreover, in the data set on participants with NT2 [2] (Compound A-treated participants (28/47), 8 weeks), the “Occurrence of TEAEs” value was 59.6%. In addition, the “Serious TEAEs” value in the data set with participants with NT2 [2] (parent and LTE study) was “no serious TEAEs”.
